Measured values reported in US20110281744A1, “METHOD OF IDENTIFYING COMPOUNDS THAT MODULATE REGULATION OF IRON RESPONSE ELEMENTS” (priority 2007, published 2011).
Where two headings read alike, the source gives them in different places. Ends that are not written are not given here.

How the values were obtained:
IRP = conditions: curcumin treatment; cited from earlier work
TfR [1] = conditions: curcumin treatment; cited from earlier work
ferritin = conditions: curcumin treatment; cited from earlier work
ferritin mRNA = experiment: Polysome analysis with northern blot: ferritin mRNA translation in treated cultured cells; type: cell-based; conditions: cells treated overnight with iron or iron plus desferal; FIG. 1B right panel
Description: (§1) FIG. 1A top panel is a graph showing polysome analysis with optical density as a function of percent sucrose. Total RNA is isolated from cultured cells by lysing the cells in polysome extraction buffer (15 mM Tris, pH 7.6, 0.3 M NaCl, 15 mM MgCl2 and 1% Triton X-100) containing 100 ng/ml cyclohexamide and 1 mg/ml heparin. The lysates are then layered onto a 10-50% sucrose gradient and centrifuged at 38,000 rpm for 2 hrs. The gradients are fractionated by monitoring UV absorbance at 254 nm.
(§2) FIG. 1A bottom panel is a northern blot showing Actin and Ferratin RNA. RNA was isolated from each fraction using RNeasy 96 Universal Tissue Kit (Qiagen) then loaded on a agarose gel and subjected to northern analysis with the appropriate probe. The high molecular weight fractions (6-12) represent those for which protein synthesis is occurring.
(§3) FIG. 1B are northern blots showing the indicated RNA. Cells were treated overnight with either iron oriron plus desferal to chelate iron and RNA was isolated and analyzed as described above.

actin mRNA = experiment: Polysome analysis with northern blot: actin mRNA translation in treated cultured cells (control); type: cell-based; conditions: cells treated overnight with iron or iron plus desferal; FIG. 1B left panel
Description: as §1, §2, §3

TfR [2] = conditions: melanoma cells; cited from earlier work
melanoma cells = conditions: cited from earlier work
DMT1 = conditions: cited from earlier work
iron uptake = conditions: through reduction in IRE(+) DMT1 mRNA; cited from earlier work

## COc1cc(/C=C/C(=O)CC(=O)/C=C/c2ccc(O)c(OC)c2)ccc1O [curcumin, Curcumin]
IRP
  IRP activation: increased IRP activation
TfR [1]
  TfR level: increase in TfR
ferritin
  ferritin level: decrease in ferritin

## CC(=O)N(O)CCCCCNC(=O)CCC(=O)N(O)CCCCCNC(=O)CCC(=O)N(O)CCCCCN [desferal]
Ferritin mRNA
  effect on ferritin translation (polysome distribution of ferritin mRNA): inhibits translation
Actin mRNA
  effect on translation of actin mRNA: neither iron nor deseferal treatment had an effect

## [Fe] [iron]
Ferritin mRNA
  effect on ferritin translation (polysome distribution of ferritin mRNA): ferritin translation increases
Actin mRNA
  effect on translation of actin mRNA: neither iron nor deseferal treatment had an effect

## O=C1O[C@H]([C@@H](O)CO)C([O-])=C1O.[Na+] [sodium ascorbate, Sodium ascorbate]
TfR [2]
  TfR level: reduction in TfR
Melanoma cells
  cell death (apoptosis): apoptosis
  intracellular iron: reduced intracellular iron

## hepcidin (DTHFPICIFCCGCCHRSKCGMCCKT; ends and bridges not checked; cysteine pairing not given here; UniProt P81172 60-84, looked up) [a naturally occurring peptide]
DMT1
  DMT1 protein isoforms with or without IRE: reduces DMT1 protein isoforms containing the IRE, but not those lacking the IRE
Iron uptake
  iron uptake: significantly reduce iron uptake
